Data from US20100260716A1, “COMPOUNDS FOR TREATING DEM[…]” (UCB PHARMA GMBH, priority 2007, published 2010).

Assays:
[1] = tested on: acute EAE induced by MBP/CFA; assay: Acute experimental allergic encephalomyelitis (EAE) rat model; type: in vivo, female Lewis rats; details: days 0-21, vehicle-treated animals onset at day 9, significantly postponed
Protocol: EAE is induced in female Lewis rats on day zero of the study by a single inoculum injection of myelin basic protein (MBP) and complete Freund's adjuvant (CFA) containing heat killed Mycobacterium tuberculosis F137 Ra at a concentration of 4 mg/ml (MD Biosciences Ltd, Israel). This MBP/CFA encephalitogenic emulsive inoculum (100 μg MBP+200 μg CFA) is injected at a total dose volume of 100 μl/animal, delivered as 2×50 subcutaneous bilateral injections into the intraplanar paw regions.
Lacosamide is administered by intraperitoneal (i.p.) injection twice daily (b.i.d.) on days 0-21 of the study, in a volume of 10 ml/kg at daily doses of 6, 20 and 60 mg/kg. A vehicle control containing no lacosamide is administered by the same route and at the same frequency.
The duration of the study is 21 days. Careful clinical examinations are carried out and recorded at least once daily in addition to EAE clinical scoring and assessment. […]
Initially, all animals are examined for signs of any neurological responses and symptoms prior to EAE induction (day 0) and thereafter examined on a daily basis through the entire 21-day observation period. To avoid experimental bias, EAE reactions are determined in a blinded fashion, as much as possible, by a staff member unaware of the specific treatment applied. […]

[2] = target: collapsin response mediator protein 2 (CRMP-2) (Homo sapiens, UniProt Q16555); details: statement quoted from poster, Stoehr et al., November 2006; cited from earlier work

For COC[C@@H](NC(C)=O)C(=O)NCc1ccccc1 [lacosamide, (R)-2-acetamido-N-benzyl-3-methoxypropionamide], the “Disease onset (day after EAE induction)” value ([1]; 10 mg/kg b.i.d. i.p.) is listed as 12 days, the “Disease onset (day after EAE induction)” value ([1]; 30 mg/kg b.i.d. i.p.) is listed as 12 days and the “Effect on CRMP-2 and on the effects of neurotrophic factors on axon growth” value [2] is listed as “modulates CRMP-2 and as a consequence attenuates the effects of neurotrophic factors on axon growth”.
